Assay: xn = mol fraction of the nth substance listed
Conditions: 103 kPa, Liquid, Vibrating tube method

CO[Si](C)(C)OC [dimethoxydimethylsilane] + CO[Si](C)(OC)c1ccccc1
mass density [kg/m3]
Conditions | 298.15 K | 303.15 K | 308.15 K | 313.15 K | 318.15 K
x2 = 0 | 857.9 | 852.05 | 846.16 | 840.22 | 834.24
x2 = 0.0501 | 867.91 | 862.2 | 856.41 | 850.61 | 844.75
x2 = 0.1001 | 877.51 | 871.89 | 866.22 | 860.51 | 854.76
x2 = 0.15 | 886.69 | 881.2 | 875.64 | 870.06 | 864.46
x2 = 0.2 | 895.55 | 890.16 | 884.71 | 879.29 | 873.78
x2 = 0.25 | 904.02 | 898.68 | 893.28 | 887.86 | 882.41
x2 = 0.2999 | 912.17 | 906.9 | 901.56 | 896.2 | 890.82
x2 = 0.3499 | 920.17 | 914.94 | 909.7 | 904.52 | 899.24
x2 = 0.4001 | 927.65 | 922.49 | 917.31 | 912.1 | 906.86
x2 = 0.4501 | 934.96 | 929.92 | 924.83 | 919.75 | 914.64
x2 = 0.5001 | 942 | 936.98 | 931.93 | 926.87 | 921.78
x2 = 0.55 | 948.79 | 943.85 | 938.85 | 933.86 | 928.85
x2 = 0.6 | 955.36 | 950.46 | 945.52 | 940.57 | 935.6
x2 = 0.6499 | 961.69 | 956.82 | 951.89 | 946.97 | 942.03
x2 = 0.6999 | 967.83 | 962.98 | 958.11 | 953.22 | 948.33
x2 = 0.75 | 973.78 | 968.97 | 964.15 | 959.31 | 954.48
x2 = 0.7997 | 979.5 | 974.72 | 969.93 | 965.13 | 960.32
x2 = 0.8499 | 985.08 | 980.34 | 975.58 | 970.81 | 966.02
x2 = 0.8999 | 990.48 | 985.77 | 981.05 | 976.33 | 971.59
x2 = 0.95 | 995.72 | 991.04 | 986.35 | 981.66 | 976.95

CCO[Si](C)(C)OCC [dimethyldiethoxysilane] + CO[Si](C)(OC)c1ccccc1
mass density [kg/m3]
Conditions | 298.15 K | 303.15 K | 308.15 K | 313.15 K | 318.15 K
x2 = 0 | 835.43 | 830.05 | 824.66 | 819.23 | 813.79
x2 = 0.05 | 844.52 | 839.2 | 833.85 | 828.47 | 823.07
x2 = 0.1001 | 853.53 | 848.24 | 842.96 | 837.62 | 832.3
x2 = 0.1499 | 862.39 | 857.16 | 851.93 | 846.65 | 841.38
x2 = 0.2002 | 871.25 | 866.06 | 860.86 | 855.62 | 850.38
x2 = 0.2501 | 879.99 | 874.82 | 869.69 | 864.51 | 859.35
x2 = 0.3001 | 888.58 | 883.47 | 878.37 | 873.21 | 868.08
x2 = 0.3499 | 897.15 | 892.09 | 887.07 | 881.99 | 876.96
x2 = 0.4 | 905.59 | 900.56 | 895.53 | 890.45 | 885.39
x2 = 0.4499 | 914.02 | 909.03 | 904.09 | 899.09 | 894.16
x2 = 0.5 | 922.3 | 917.36 | 912.44 | 907.47 | 902.55
x2 = 0.55 | 930.51 | 925.59 | 920.71 | 915.78 | 910.89
x2 = 0.5999 | 938.58 | 933.7 | 928.83 | 923.93 | 919.05
x2 = 0.65 | 946.66 | 941.82 | 936.99 | 932.13 | 927.3
x2 = 0.6999 | 954.61 | 949.79 | 944.98 | 940.14 | 935.33
x2 = 0.75 | 962.69 | 957.72 | 952.94 | 948.14 | 943.35
x2 = 0.8 | 970.29 | 965.52 | 960.76 | 955.98 | 951.2
x2 = 0.8498 | 978.01 | 973.29 | 968.57 | 963.83 | 959.11
x2 = 0.9 | 985.69 | 980.99 | 976.3 | 971.58 | 966.88
x2 = 0.95 | 993.25 | 988.58 | 983.91 | 979.23 | 974.53

C=C[Si](C)(OCC)OCC [methylvinyldiethoxysilane] + CO[Si](C)(OC)c1ccccc1
mass density [kg/m3]
Conditions | 298.15 K | 303.15 K | 308.15 K | 313.15 K | 318.15 K
x2 = 0 | 856.25 | 851.09 | 845.89 | 840.71 | 835.44
x2 = 0.05 | 863.72 | 858.61 | 853.46 | 848.28 | 843.09
x2 = 0.1001 | 871.17 | 866.08 | 860.96 | 855.82 | 850.66
x2 = 0.1499 | 878.58 | 873.53 | 868.43 | 863.33 | 858.2
x2 = 0.2001 | 885.98 | 880.95 | 875.9 | 870.83 | 865.74
x2 = 0.2501 | 893.45 | 888.45 | 883.43 | 878.38 | 873.33
x2 = 0.3 | 900.68 | 895.69 | 890.69 | 885.67 | 880.64
x2 = 0.3499 | 907.99 | 903.05 | 898.08 | 893.09 | 888.08
x2 = 0.4 | 915.28 | 910.36 | 905.41 | 900.45 | 895.47
x2 = 0.4501 | 922.58 | 917.68 | 912.77 | 907.84 | 902.89
x2 = 0.5 | 929.75 | 924.84 | 919.93 | 915 | 910.05
x2 = 0.5499 | 937 | 932.14 | 927.28 | 922.39 | 917.49
x2 = 0.6 | 944.21 | 939.4 | 934.57 | 929.72 | 924.87
x2 = 0.65 | 951.55 | 946.75 | 941.94 | 937.11 | 932.27
x2 = 0.6999 | 958.48 | 953.71 | 948.92 | 944.12 | 939.31
x2 = 0.75 | 965.63 | 960.89 | 956.12 | 951.35 | 946.57
x2 = 0.7999 | 972.72 | 968 | 963.25 | 958.51 | 953.74
x2 = 0.85 | 979.76 | 975.05 | 970.33 | 965.59 | 960.85
x2 = 0.8998 | 987.03 | 982.34 | 977.65 | 972.94 | 968.23
x2 = 0.9499 | 993.78 | 989.11 | 984.43 | 979.74 | 975.03

C=C[Si](OC)(OC)OC [trimethoxy(vinyl)silane] + CO[Si](C)(OC)c1ccccc1
mass density [kg/m3]
Conditions | 298.15 K | 303.15 K | 308.15 K | 313.15 K | 318.15 K
x2 = 0 | 965.69 | 960.02 | 954.26 | 948.47 | 942.63
x2 = 0.05 | 968.08 | 962.41 | 956.71 | 950.99 | 945.24
x2 = 0.1 | 970.32 | 964.72 | 959.1 | 953.45 | 947.77
x2 = 0.1499 | 972.48 | 966.94 | 961.39 | 955.8 | 950.2
x2 = 0.2 | 974.57 | 969.11 | 963.63 | 958.1 | 952.57
x2 = 0.2501 | 976.61 | 971.22 | 965.8 | 960.36 | 954.9
x2 = 0.2999 | 978.59 | 973.25 | 967.91 | 962.52 | 957.14
x2 = 0.35 | 980.49 | 975.22 | 969.93 | 964.61 | 959.27
x2 = 0.4001 | 982.35 | 977.14 | 971.9 | 966.65 | 961.37
x2 = 0.4501 | 984.15 | 978.99 | 973.81 | 968.61 | 963.4
x2 = 0.5 | 985.89 | 980.79 | 975.67 | 970.52 | 965.37
x2 = 0.5499 | 987.58 | 982.53 | 977.46 | 972.37 | 967.27
x2 = 0.6 | 989.22 | 984.22 | 979.2 | 974.17 | 969.12
x2 = 0.6499 | 990.82 | 985.86 | 980.89 | 975.91 | 970.93
x2 = 0.7 | 992.37 | 987.46 | 982.54 | 977.6 | 972.65
x2 = 0.75 | 993.89 | 989.02 | 984.15 | 979.26 | 974.36
x2 = 0.8001 | 995.35 | 990.53 | 985.7 | 980.86 | 976.01
x2 = 0.8498 | 996.76 | 991.99 | 987.21 | 982.41 | 977.61
x2 = 0.8999 | 998.15 | 993.42 | 988.68 | 983.93 | 979.18
x2 = 0.9499 | 999.49 | 994.81 | 990.11 | 985.41 | 980.69
